Reference: patent US10201533B2, “Substituted quinolizine derivatives useful as HIV integrase inhibitors” (priority 2013, dated 2019)

system: HIV-1 (NL4-3 strain); experiment: microbe, parasite or virus in culture; format: cell-based; conditions: 0% normal human serum (NHS); MT4-GFP cells infected with HIV-1 NL4-3; IP or IC50 from 4-parameter dose response curve; read-out: WILD TYPE CELL ASSAY Viking IP (0% NHS)

Compound	IC50 [nM]
COCCC[C@@]1(C)C(=O)c2c(O)c(=O)c(C(=O)NCc3cccc(Cl)c3F)cn2C[C@@H]1OC [Compound 81]	1

same assay, conditions: 100% normal human serum (NHS); MT4-GFP cells infected with HIV-1 NL4-3; IP or IC50 from 4-parameter dose response curve; read-out: WILD TYPE CELL ASSAY Viking IP (100% NHS)

Compound	IC50 [nM]
C[C@]12CCCO[C@@H]1Cn1cc(C(=O)NCc3cccc(Cl)c3F)c(=O)c(O)c1C2=O (single isomer, unassigned) [Compound 35]	337
C[C@@]12CCCCO[C@@H]1Cn1cc(C(=O)NCc3ccc(F)cc3F)c(=O)c(O)c1C2=O (single isomer, unassigned) [Compound 39]	33
C[C@@]12CCCCO[C@@H]1Cn1cc(C(=O)NCc3c(F)cc(F)cc3F)c(=O)c(O)c1C2=O (single isomer, unassigned) [Compound 41]	34
C[C@]12CCCCO[C@@H]1Cn1cc(C(=O)NCc3ccc(F)cc3F)c(=O)c(O)c1C2=O (single isomer, unassigned) [Compound 43]	2000
C[C@]12CCCCO[C@@H]1Cn1cc(C(=O)NCc3cccc(Cl)c3F)c(=O)c(O)c1C2=O (single isomer, unassigned) [Compound 45]	4750
C[C@]12CCCO[C@H]1Cn1cc(C(=O)NCc3ccc(F)cc3F)c(=O)c(O)c1C2=O [Compound 7]	154
C[C@]12CCCCO[C@H]1Cn1cc(C(=O)NCc3cccc(Cl)c3F)c(=O)c(O)c1C2=O [Compound 37]	80
C[C@@]12CC=CCO[C@@H]1Cn1cc(C(=O)NCc3ccc(F)cc3F)c(=O)c(O)c1C2=O [Compound 47]	70
C[C@]12CC=CCO[C@@H]1Cn1cc(C(=O)NCc3ccc(F)cc3F)c(=O)c(O)c1C2=O [Compound 49]	4070
COC1(C)CCn2cc(C(=O)NCc3ccc(F)cc3F)c(=O)c(O)c2C1=O (stereo not shown) [Compound 51]	2200
COC[C@@]1(C)C(=O)c2c(O)c(=O)c(C(=O)NCc3ccc(F)cc3F)cn2C[C@@H]1OC [Compound 56]	342
COCC[C@]1(C)C(=O)c2c(O)c(=O)c(C(=O)NCc3cccc(Cl)c3F)cn2C[C@@H]1OC [Compound 64]	2960
COCC[C@]1(C)C(=O)c2c(O)c(=O)c(C(=O)NCc3ccccc3F)cn2C[C@@H]1OC [Compound 68]	604
COCCC[C@]1(C)C(=O)c2c(O)c(=O)c(C(=O)NCc3cccc(Cl)c3F)cn2C[C@@H]1OC [Compound 78]	15
COCCC[C@@]1(C)C(=O)c2c(O)c(=O)c(C(=O)NCc3cccc(Cl)c3F)cn2C[C@@H]1OC [Compound 80]	101
COCCC[C@@]1(C)C(=O)c2c(O)c(=O)c(C(=O)NCc3cccc(Cl)c3F)cn2C[C@@H]1OC [Compound 81]	296

same assay, conditions: Human immunodeficiency virus 1, NL43, 0% normal human serum (NHS); MT4-GFP cells infected with HIV-1 NL4-3; IP or IC50 from 4-parameter dose response curve; read-out: WILD TYPE CELL ASSAY Viking IP (0% NHS)

Compound	IC50 [nM]
C[C@]12CCCO[C@@H]1Cn1cc(C(=O)NCc3cccc(Cl)c3F)c(=O)c(O)c1C2=O (single isomer, unassigned) [Compound 35]	0.4
C[C@@]12CCCCO[C@@H]1Cn1cc(C(=O)NCc3ccc(F)cc3F)c(=O)c(O)c1C2=O (single isomer, unassigned) [Compound 39]	0.8
C[C@@]12CCCCO[C@@H]1Cn1cc(C(=O)NCc3c(F)cc(F)cc3F)c(=O)c(O)c1C2=O (single isomer, unassigned) [Compound 41]	2
C[C@]12CCCCO[C@@H]1Cn1cc(C(=O)NCc3ccc(F)cc3F)c(=O)c(O)c1C2=O (single isomer, unassigned) [Compound 43]	3.2
C[C@]12CCCCO[C@@H]1Cn1cc(C(=O)NCc3cccc(Cl)c3F)c(=O)c(O)c1C2=O (single isomer, unassigned) [Compound 45]	2.3
CC1(C)CCn2cc(C(=O)NCc3ccc(F)cc3)c(=O)c(O)c2C1=O [Compound 2]	27
CC1(C)CCn2cc(C(=O)NCc3cc4ccccn4n3)c(=O)c(O)c2C1=O [Compound 3]	6.5
CC1(C)C(=O)c2c(O)c(=O)c(C(=O)NCc3ccc(F)cc3F)cn2CC1O (stereo not shown) [Compound 4]	74
COC1Cn2cc(C(=O)NCc3ccc(F)cc3F)c(=O)c(O)c2C(=O)C1(C)C (stereo not shown) [Compound 5]	2.6
C[C@]12CCCO[C@H]1Cn1cc(C(=O)NCc3ccc(F)cc3F)c(=O)c(O)c1C2=O [Compound 7]	2.2
O=C(NCc1ccc(F)cc1F)c1cn2c(c(O)c1=O)C(=O)C1CCOC1C2 (stereo not shown) [Compound 10]	66
C[C@@]12COCO[C@H]1Cn1cc(C(=O)NCc3ccc(F)cc3F)c(=O)c(O)c1C2=O [Compound 11]	3.2
C[C@]12COCO[C@H]1Cn1cc(C(=O)NCc3ccc(F)cc3F)c(=O)c(O)c1C2=O [Compound 13]	3.8
Cc1nc(CNC(=O)c2cn3c(c(O)c2=O)C(=O)[C@@]2(C)CCCO[C@H]2C3)sc1C [Compound 31]	48
C[C@]12CCCCO[C@H]1Cn1cc(C(=O)NCc3cccc(Cl)c3F)c(=O)c(O)c1C2=O [Compound 37]	1.5
C[C@@]12CC=CCO[C@@H]1Cn1cc(C(=O)NCc3ccc(F)cc3F)c(=O)c(O)c1C2=O [Compound 47]	1.3
C[C@]12CC=CCO[C@@H]1Cn1cc(C(=O)NCc3ccc(F)cc3F)c(=O)c(O)c1C2=O [Compound 49]	3.2
COC1(C)CCn2cc(C(=O)NCc3ccc(F)cc3F)c(=O)c(O)c2C1=O (stereo not shown) [Compound 51]	3.6
COC[C@@]1(C)C(=O)c2c(O)c(=O)c(C(=O)NCc3ccc(F)cc3F)cn2C[C@@H]1OC [Compound 56]	3.4
COCC[C@]1(C)C(=O)c2c(O)c(=O)c(C(=O)NCc3ccc(F)cc3F)cn2C[C@@H]1OC [Compound 60]	2.9
COCC[C@@]1(C)C(=O)c2c(O)c(=O)c(C(=O)NCc3cccc(Cl)c3F)cn2C[C@@H]1OC [Compound 62]	0.9
COCC[C@]1(C)C(=O)c2c(O)c(=O)c(C(=O)NCc3cccc(Cl)c3F)cn2C[C@@H]1OC [Compound 64]	0.9
COCC[C@@]1(C)C(=O)c2c(O)c(=O)c(C(=O)NCc3ccccc3F)cn2C[C@@H]1OC [Compound 66]	2.5
COCC[C@]1(C)C(=O)c2c(O)c(=O)c(C(=O)NCc3ccccc3F)cn2C[C@@H]1OC [Compound 68]	1.8
COCC[C@@]1(C)C(=O)c2c(O)c(=O)c(C(=O)NCc3c(F)cccc3F)cn2C[C@@H]1OC [Compound 70]	1.9
COCCC[C@@]1(C)C(=O)c2c(O)c(=O)c(C(=O)NCc3ccc(F)cc3F)cn2C[C@@H]1OC [Compound 76]	0.9
COCCC[C@]1(C)C(=O)c2c(O)c(=O)c(C(=O)NCc3cccc(Cl)c3F)cn2C[C@@H]1OC [Compound 78]	0.8
COCCC[C@@]1(C)C(=O)c2c(O)c(=O)c(C(=O)NCc3cccc(Cl)c3F)cn2C[C@@H]1OC [Compound 80]	1.1

same assay, conditions: Human immunodeficiency virus 1, NL43, 100% normal human serum (NHS); MT4-GFP cells infected with HIV-1 NL4-3; IP or IC50 from 4-parameter dose response curve; read-out: WILD TYPE CELL ASSAY Viking IP (100% NHS)

Compound	IC50 [nM]
CC1(C)C(=O)c2c(O)c(=O)c(C(=O)NCc3ccc(F)cc3F)cn2CC1O (stereo not shown) [Compound 4]	1850
COC1Cn2cc(C(=O)NCc3ccc(F)cc3F)c(=O)c(O)c2C(=O)C1(C)C (stereo not shown) [Compound 5]	102
C[C@@]12COCO[C@H]1Cn1cc(C(=O)NCc3ccc(F)cc3F)c(=O)c(O)c1C2=O [Compound 11]	484
C[C@]12COCO[C@H]1Cn1cc(C(=O)NCc3ccc(F)cc3F)c(=O)c(O)c1C2=O [Compound 13]	124
Cc1nc(CNC(=O)c2cn3c(c(O)c2=O)C(=O)[C@@]2(C)CCCO[C@H]2C3)sc1C [Compound 31]	> 8400
COCC[C@]1(C)C(=O)c2c(O)c(=O)c(C(=O)NCc3ccc(F)cc3F)cn2C[C@@H]1OC [Compound 60]	2230
COCC[C@@]1(C)C(=O)c2c(O)c(=O)c(C(=O)NCc3cccc(Cl)c3F)cn2C[C@@H]1OC [Compound 62]	481
COCC[C@@]1(C)C(=O)c2c(O)c(=O)c(C(=O)NCc3ccccc3F)cn2C[C@@H]1OC [Compound 66]	126
COCC[C@@]1(C)C(=O)c2c(O)c(=O)c(C(=O)NCc3c(F)cccc3F)cn2C[C@@H]1OC [Compound 70]	80
COCCC[C@@]1(C)C(=O)c2c(O)c(=O)c(C(=O)NCc3ccc(F)cc3F)cn2C[C@@H]1OC [Compound 76]	35
